Source: PubChem BioAssay (NCI)
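GI50 is the concentration that inhibits growth by half. TGI: total growth inhibition.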

What was measured:
Test in all cases: growth of human tumour cells (NCI), 384-well format
[1] = test system: M14 melanoma
[2] = test system: A498 renal
[3] = test system: SF-295 CNS
[4] = test system: NCI-H226 lung
[5] = test system: SK-MEL-28 melanoma
[6] = test system: MALME-3M melanoma
[7] = test system: SK-MEL-2 melanoma
[8] = test system: MOLT-4 leukemia
[9] = test system: CCRF-CEM leukemia
[10] = test system: HL-60(TB) leukemia
[11] = test system: SNB-75 CNS
[12] = test system: UACC-62 melanoma
[13] = test system: MDA-MB-468 breast

Compound | GI50 [1] | TGI [1] | GI50 [2] | TGI [2] | GI50 [3] | TGI [3] | GI50 [4] | TGI [4] | GI50 [5] | TGI [5] | GI50 [6] | TGI [6] | GI50 [7] | TGI [7] | GI50 [8] | TGI [8] | GI50 [9] | TGI [9] | GI50 [10] | TGI [10] | also measured
Cn1cc(-c2ccc(-c3cncc(Cl)c3N3CCC4(CCNC4=O)CC3)cc2)cn1 | 39.4 µM | > 100 µM | 4.45 µM | 33.1 µM | 25.2 µM | > 87.2 µM | 18.6 µM | 59.8 µM | 20 µM | > 65.3 µM | 30.3 µM | > 100 µM | 16.9 µM | 39.2 µM | 6.92 µM | 24.2 µM | 8.63 µM | 23.9 µM | 1.73 µM | 5.74 µM | GI50 [11]: 40 µM; TGI [11]: > 95.9 µM; GI50 [12]: 20.1 µM; TGI [12]: 58.1 µM; GI50 [13]: 3.15 µM; TGI [13]: 18.4 µM
COc1ccc2c(Oc3ccc(NC(=O)c4c(C)n(CC(C)(C)O)n(-c5ccccc5)c4=O)nc3)ccnc2c1 | 6.34 µM | 70.2 µM | 4.43 µM | > 100 µM | 13.9 µM | > 100 µM | 22.6 µM | > 100 µM | 25.2 µM | 84.8 µM | 5.26 µM | 60 µM | 13 µM | 33.4 µM | 3.58 µM | 12.4 µM | 10.3 µM | 22 µM | 5.49 µM | 14.9 µM | GI50 [11]: 7.61 µM; TGI [11]: 53.1 µM; GI50 [12]: 4.99 µM; TGI [12]: 24 µM; GI50 [13]: 22.9 µM; TGI [13]: > 100 µM
